Test: Ex vivo energy facilitated drug delivery from coated balloon to arteries in closed flow loop, HPLC quantification
Format: in vitro ADME, swine
Conditions: ex vivo porcine arteries, Trireme Chocolate balloon 6.0×40 coated with paclitaxel:PEG-8000 5:1 at 3.0 ug/mm2, GenePulser II 0.5 kV/1 μF, 3 pulses during about 1 minute expansion, vs same device without voltage
Description: The energy source to power the device is a pulse generator capable of producing square waves. One commercial example of such a device is the BioRad Gene Pulser II (FIG. 7). The square wave generator produces suitable voltages between the range of 0.001 kV and 5 kV across the membrane. For all prototyping, this device was used to power all of coated catheters by connecting to the wire connection at the proximal catheter end. […] The tissue is then stored in isotonic saline and placed on ice (or 4° C.) for immediate use in an ex-vivo circulatory system.
Ex Vivo Testing Protocol • Fresh PBS is made with pre-measured pellets (1 pellet/100 ml H2O). • Porcine arterial tissue was acquired and cut to length • Arteries are placed in fresh PBS while cleaning of adventitia is performed. • Arteries are attached to the circulation apparatus with cannulas to allow flow through the vessel. […]

enhancement of the transfer of paclitaxel to arteries by application of voltage (factor): 10 ×
Structure (SMILES): CC(=O)O[C@H]1C(=O)[C@@]2(C)[C@H]([C@H](OC(=O)c3ccccc3)[C@]3(O)C[C@H](OC(=O)[C@H](O)[C@@H](NC(=O)c4ccccc4)c4ccccc4)C(C)=C1C3(C)C)[C@]1(OC(C)=O)CO[C@@H]1C[C@@H]2O [paclitaxel]
